Assay results taken from PMC9516332 (Frontiers in Oncology, 2022).
Like-named read-outs stand apart in the source and are kept apart here.

Tests used:
Test in all cases: Kinase panel profiling at 1 µmol/L (MSA or IMAP), percentage inhibition
Format in all cases: biochemical
[1] = target: T1, panel of 255 wild-type kinases (Homo sapiens, UniProt Q08881); conditions: read-out: %-inhibition at 1 µmol/L, ITK
T1 sequence (Q08881 1-620): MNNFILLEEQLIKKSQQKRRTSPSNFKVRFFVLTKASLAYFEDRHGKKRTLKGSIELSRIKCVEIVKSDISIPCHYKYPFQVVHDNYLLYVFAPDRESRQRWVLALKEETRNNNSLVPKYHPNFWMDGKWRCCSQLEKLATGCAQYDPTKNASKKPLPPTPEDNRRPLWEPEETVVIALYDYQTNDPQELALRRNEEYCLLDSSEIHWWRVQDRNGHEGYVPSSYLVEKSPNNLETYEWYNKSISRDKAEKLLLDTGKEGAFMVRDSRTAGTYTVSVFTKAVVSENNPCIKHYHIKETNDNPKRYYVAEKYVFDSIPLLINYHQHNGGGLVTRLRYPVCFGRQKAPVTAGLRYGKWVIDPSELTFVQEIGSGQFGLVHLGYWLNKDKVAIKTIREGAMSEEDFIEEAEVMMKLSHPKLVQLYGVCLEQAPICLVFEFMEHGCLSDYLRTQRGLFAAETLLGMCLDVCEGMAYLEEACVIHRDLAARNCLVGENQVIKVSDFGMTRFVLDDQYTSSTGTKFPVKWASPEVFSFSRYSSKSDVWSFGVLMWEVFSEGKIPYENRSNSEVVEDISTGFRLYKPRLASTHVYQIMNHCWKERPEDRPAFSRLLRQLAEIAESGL

[2] = target: T2, panel of 255 wild-type kinases (Homo sapiens, UniProt O00141); conditions: read-out: %-inhibition at 1 µmol/L, SGK
T2 sequence (O00141 1-431): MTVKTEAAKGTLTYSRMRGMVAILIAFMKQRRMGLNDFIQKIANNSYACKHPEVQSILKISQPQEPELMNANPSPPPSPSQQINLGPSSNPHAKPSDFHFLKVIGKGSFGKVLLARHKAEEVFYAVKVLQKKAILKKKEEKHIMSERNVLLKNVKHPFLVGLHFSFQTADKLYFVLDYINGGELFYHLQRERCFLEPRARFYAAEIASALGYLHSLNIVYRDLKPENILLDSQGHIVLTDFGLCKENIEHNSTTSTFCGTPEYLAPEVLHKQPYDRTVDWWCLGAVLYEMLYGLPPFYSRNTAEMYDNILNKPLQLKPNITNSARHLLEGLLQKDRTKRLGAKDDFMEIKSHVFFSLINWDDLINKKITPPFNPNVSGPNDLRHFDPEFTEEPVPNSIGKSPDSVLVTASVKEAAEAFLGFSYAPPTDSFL

[3] = target: T3, panel of 255 wild-type kinases (Homo sapiens, UniProt P43403); conditions: read-out: %-inhibition at 1 µmol/L, ZAP70
T3 sequence (P43403 1-619): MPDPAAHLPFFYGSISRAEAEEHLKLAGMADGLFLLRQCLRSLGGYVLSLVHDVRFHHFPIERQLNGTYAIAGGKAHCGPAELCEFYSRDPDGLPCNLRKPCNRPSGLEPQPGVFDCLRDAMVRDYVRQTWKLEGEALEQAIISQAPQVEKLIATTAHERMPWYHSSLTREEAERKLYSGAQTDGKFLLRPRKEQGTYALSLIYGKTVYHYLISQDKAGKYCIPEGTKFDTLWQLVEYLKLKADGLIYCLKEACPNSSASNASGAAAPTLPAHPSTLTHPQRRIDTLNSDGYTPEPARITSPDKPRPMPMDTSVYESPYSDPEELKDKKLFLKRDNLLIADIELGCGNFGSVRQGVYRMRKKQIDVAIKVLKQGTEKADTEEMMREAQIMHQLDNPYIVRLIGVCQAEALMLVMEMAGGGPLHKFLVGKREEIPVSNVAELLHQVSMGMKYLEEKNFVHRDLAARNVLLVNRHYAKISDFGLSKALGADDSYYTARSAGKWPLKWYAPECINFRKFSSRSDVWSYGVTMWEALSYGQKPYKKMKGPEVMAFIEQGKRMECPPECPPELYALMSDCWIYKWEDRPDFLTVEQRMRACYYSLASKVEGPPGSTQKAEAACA

[4] = target: T4, panel of 255 wild-type kinases (Homo sapiens, UniProt Q8TDC3); conditions: read-out: %-inhibition BRSK1
T4 sequence (Q8TDC3 1-778): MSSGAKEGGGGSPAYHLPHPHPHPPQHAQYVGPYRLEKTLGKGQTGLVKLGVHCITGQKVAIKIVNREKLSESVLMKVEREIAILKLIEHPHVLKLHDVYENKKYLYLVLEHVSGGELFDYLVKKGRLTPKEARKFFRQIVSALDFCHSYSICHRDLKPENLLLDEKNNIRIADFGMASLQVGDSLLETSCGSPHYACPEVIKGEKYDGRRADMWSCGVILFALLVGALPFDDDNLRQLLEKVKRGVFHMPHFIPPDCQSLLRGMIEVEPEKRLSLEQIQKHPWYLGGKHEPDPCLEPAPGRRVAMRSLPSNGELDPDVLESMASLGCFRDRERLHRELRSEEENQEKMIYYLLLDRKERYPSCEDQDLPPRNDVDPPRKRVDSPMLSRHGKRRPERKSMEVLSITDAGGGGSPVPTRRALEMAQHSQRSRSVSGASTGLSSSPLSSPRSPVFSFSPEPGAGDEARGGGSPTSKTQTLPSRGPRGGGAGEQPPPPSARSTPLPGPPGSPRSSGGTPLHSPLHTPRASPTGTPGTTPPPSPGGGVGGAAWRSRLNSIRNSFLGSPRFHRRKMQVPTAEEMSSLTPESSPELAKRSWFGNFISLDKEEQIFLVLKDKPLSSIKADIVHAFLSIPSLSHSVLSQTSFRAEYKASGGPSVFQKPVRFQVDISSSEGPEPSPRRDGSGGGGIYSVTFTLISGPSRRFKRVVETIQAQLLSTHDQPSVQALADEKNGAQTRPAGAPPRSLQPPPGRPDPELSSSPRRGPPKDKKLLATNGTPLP

[5] = kinase ITK, 1 µmol/L single concentration
[6] = kinase SGK, 1 µmol/L single concentration
[7] = kinase ZAP70, 1 µmol/L single concentration
[8] = BRSK1 kinase assay, 1 µmol/L single concentration

Row | Compound | inhibition at 1 µM [1, 5] | inhibition at 1 µM [2, 6] | inhibition at 1 µM [3, 7] | inhibition at 1 µM [4, 8] | inhibition at 1 µM [1] | inhibition at 1 µM [2] | inhibition at 1 µM [3] | inhibition at 1 µM [4]
1 | Cc1nc(NC(=O)N2CCC[C@H]2C(N)=O)sc1-c1ccnc(C(C)(C)C(F)(F)F)c1 [alpelisib] | 9% | -5.64% | 1.11% | 12% | – | – | – | –
2 | Cn1cc(-c2cc3c(N4CCN(c5ncc([C@@](C)(N)c6ccc(F)cc6)cn5)CC4)ncnn3c2)cn1 [avapritinib] | 19% | 0.775% | 13% | 8.49% | – | – | – | –
3 | Cn1cnc2c(F)c(Nc3ccc(Br)cc3F)c(C(=O)NOCCO)cc21 [binimetinib] | 1.61% | 5% | -1.09% | -0.585% | – | – | – | –
4 | CNC(=O)c1ccc(-c2cnc3ncc(Cc4ccc5ncccc5c4)n3n2)cc1F [capmatinib] | – | – | – | – | 5% | -0.731% | 4% | 0.113%
5 | COc1cc2ncnc(Nc3ccc(F)c(Cl)c3)c2cc1NC(=O)/C=C/CN1CCCCC1 [dacomitinib] | 24% | -6% | -4% | 14% | – | – | – | –
6 | C[C@H](Nc1ncnc2nc[nH]c12)c1cc2cccc(Cl)c2c(=O)n1-c1ccccc1 [duvelisib] | 9% | -3.47% | 2% | 0.274% | – | – | – | –
7 | COC(=O)N[C@@H](C)CNc1nccc(-c2cn(C(C)C)nc2-c2cc(Cl)cc(NS(C)(=O)=O)c2F)n1 [encorafenib] | 3.49% | 7% | 0.195% | 1.38% | – | – | – | –
8 | CN1CCN(c2ccc(C(=O)Nc3n[nH]c4ccc(Cc5cc(F)cc(F)c5)cc34)c(NC3CCOCC3)c2)CC1 [entrectinib] | 99% | -5.65% | 2.19% | 8% | – | – | – | –
9 | CCc1nc(C(N)=O)c(Nc2ccc(N3CCC(N4CCN(C)CC4)CC3)c(OC)c2)nc1NC1CCOCC1 [gilteritinib] | 92% | 8.52% | 46% | 23% | – | – | – | –
10 | CCN1CCN(c2ccc(Nc3cc(N(C)C(=O)Nc4c(Cl)c(OC)cc(OC)c4Cl)ncn3)cc2)CC1 [infigratinib] | 6% | -1.45% | -2.77% | 1.2% | – | – | – | –
11 | O=C(Nc1cnn2ccc(N3CCC[C@@H]3c3cc(F)ccc3F)nc12)N1CC[C@H](O)C1 [larotrectinib] | 13% | -1.16% | 4.69% | -0.915% | – | – | – | –
12 | C[C@H]1Oc2cc(cnc2N)-c2c(nn(C)c2C#N)CN(C)C(=O)c2ccc(F)cc21 [lorlatinib] | 14% | -0.181% | 6% | 29% | – | – | – | –
13 | CCN1C(=O)N(c2c(F)c(OC)cc(OC)c2F)Cc2cnc3[nH]c(CN4CCOCC4)cc3c21 [pemigatinib] | 2% | 5% | 2% | 0.395% | – | – | – | –
14 | FC(F)(F)c1ccc(CNc2ccc(Cc3c[nH]c4ncc(Cl)cc34)cn2)cn1 [pexidartinib] | 9% | 11% | -7% | 9% | – | – | – | –
15 | CO[C@]1(C(=O)N[C@@H](C)c2ccc(-n3cc(F)cn3)nc2)CC[C@H](c2nc(C)cc(Nc3cc(C)[nH]n3)n2)CC1 [pralsetinib] | 59% | 7% | 9% | 12% | – | – | – | –
16 | CCn1c(=O)c(-c2cc(NC(=O)Nc3ccccc3)c(F)cc2Br)cc2cnc(NC)cc21 [ripretinib] | 1.24% | -5% | -8% | 1.77% | – | – | – | –
17 | COc1ccc(CN2C3CC2CN(c2ccc(-c4cc(OCC(C)(C)O)cn5ncc(C#N)c45)cn2)C3)cn1 [selpercatinib] | 79% | 11% | 8% | 36% | – | – | – | –
18 | Cn1cnc2c(F)c(Nc3ccc(Br)cc3Cl)c(C(=O)NOCCO)cc21 [selumetinib] | 4.28% | 1.83% | -1.11% | -1.75% | – | – | – | –
19 | Cc1cc(Nc2ncnc3ccc(NC4=NC(C)(C)CO4)cc23)ccc1Oc1ccn2ncnc2c1 [tucatinib] | 1.31% | 0.299% | 3.36% | 0.339% | – | – | – | –
20 | C=CC(=O)N1CCC([C@@H]2CCNc3c(C(N)=O)c(-c4ccc(Oc5ccccc5)cc4)nn32)CC1 [zanubrutinib] | 34% | -0.675% | 2% | -1.87% | – | – | – | –
